Patent US4277478A, “Antibiotic and use thereof” (priority 1975, dated 1981)

Legend:
Salmonella typhimurium = assay: serial dilution test, MIC, Salmonella typhimurium; format: cell-based; details: Salmonella enterica, 37°, Gram-negative
Source text: (§1) The components display the following Rf values in a thin layer chromatogram on silica gel plates from Messrs. Merck (silica gel 60, F254): in chloroform/methanol (9:1): X=0.58; I=0.81; in benzene/methanol (9:1): X=0.26; I=0.30; in chloroform/acetone (5:5): X=0.40; I=0.53; and in benzene/acetone (5:5): X=0.47; I=0.74. In a serial dilution test the following minimum inhibitory concentrations (MIC) were found for Lysolipin I: […]

Candida albicans = assay: activity against yeast-like fungi, Candida albicans; format: cell-based
Candida lipolytica = assay: activity against yeast-like fungi, Candida lipolytica; format: cell-based
Saccaromyces cerevisiae = assay: activity against yeast-like fungi, Saccaromyces cerevisiae; format: cell-based
microbial cells = assay: activity against growing and dormant microbial cells and sphaeroplasts; format: cell-based; details: both growing and dormant cells
solubility = format: physicochemical
[1] = titration / microtitration (pK); format: physicochemical
Source text: (OCH3 : determination according to the method of Zeisel). Molecular weight, determined by vapour pressure osmometry in ethyl acetate; found 536. Microtitration with 0.1 N tetramethylammonium hydroxide in methylcellosolve/water (8:2): found pK^xMCS 9.72, equivalent weight 545. Titration with 0.1 N HCl; no step (N atom therefore not basic).

Micro-organisms = assay: MIC of Lysolipin X compared with Lysolipin I, serial dilution test; format: cell-based; details: Lysolipin X relative to Lysolipin I
Source text: as §1

[2] = stability / conversion of Lysolipin X into Lysolipin I; format: physicochemical
Experimental: Lysolipin X was obtained as a colourless amorphous powder. […] The almost colourless amorphous powder thus obtained, that is to say Lysolipin X, can be crystallized from methanol; on heating the crystals undergo modification at 200° and melt at 260° C.
The pure product so obtained is stable in the absence of light and acid. In a thin layer chromatogram on silica gel in the system chloroform/methanol (39:1), Rf=0.22 (Rf of Lysolipin I=0.39). […] The signals at 0.9 and 1.3 ppm are probably to be ascribed to a fatty impurity. However, most of the signals in the range from 3 to 8 ppm are very similar to those of Lysolipin I and point to the close relationship between the two compounds.
On analogous working up, fractions 76-100 give an almost colourless amorphous powder (393 mg), which is Lysolipin X and cannot be purified by crystallisation. See FIGS. 7 and 8 for the NMR spectrum and the UV spectrum. On thin layer chromatography on silica gel in chloroform/methanol (39:1), Rf=0.22 (compared with 0.39 for Lysolipin I). On the thin layer plate, the spot for Lysolipin X, which is initially very pale and scarcely discernible, becomes deep yellow on standing in the air and, more rapidly, on warming.

COc1c(Cl)ccc2c(=O)c3c(O)c4c5c(c3oc12)OCOC5C(OC)c1cc2c(c(O)c1-4)C(=O)N(C)C(OC)C2O (stereo not drawn) [Lysolipin I]
MIC (Salmonella typhimurium): > 100 µg/mL | activity against yeast-like fungi (Candida albicans): display an activity | activity against yeast-like fungi (Candida lipolytica): display an activity | activity against yeast-like fungi (Saccaromyces cerevisiae): display an activity | activity against growing and dormant microbial cells and their sphaeroplasts (microbial cells): active | solubility in organic solvents (solubility; acetone, dimethylformamide, dimethylsulphoxide, ethyl acetate, hydrocarbons, halogenated hydrocarbons): readily soluble | solubility in lower alkanols, ether and petroleum ether (solubility; methanol, ethanol, n-propanol, ether, petroleum ether): partially soluble | solubility in water and aqueous acids and bases (solubility; water and aqueous acids and bases): virtually insoluble | titration with HCl ([1]; 0.1 N HCl, N atom therefore not basic): no step | pKa ([1]; microtitration with 0.1 N tetramethylammonium hydroxide in methylcellosolve/water (8:2), read-out: pK^xMCS): 9.72

COc1c(Cl)ccc2c(=O)c3c(oc12)C1=C2C(OCO1)C(OC)c1cc4c(c(O)c1C2(O)C3O)C(=O)N(C)C(OC)C4O (stereo not drawn) [Lysolipin X]
factor by which the MIC is higher (Micro-organisms): 10-50 | activity against yeast-like fungi (Candida albicans): display an activity | activity against yeast-like fungi (Candida lipolytica): display an activity | activity against yeast-like fungi (Saccaromyces cerevisiae): display an activity | activity against growing and dormant microbial cells and their sphaeroplasts (microbial cells): active | stability to acid in solvent ([2]; chloroform or methanol with formic, acetic, hydrochloric or sulfuric acid): converted into Lysolipin I | stability on heating or irradiation with UV light ([2]; especially in the presence of catalytic amounts of acids): forms Lysolipin I | stability of impure material ([2]; impure): unstable | stability on storage ([2]; impure, stored in the air, unprotected from light, room temperature or higher): gradually converted into Lysolipin I | stability of pure product ([2]; in the absence of light and acid): stable | stability on thin layer plate ([2]; silica gel plate, standing in the air, more rapidly on warming): converted into Lysolipin I
